System: arachidonic acid-induced inflammatory reaction, mouse ear
Test: Arachidonic Acid Mouse Ear Test
Assay type: in vivo, Charles River, female, CD, (SD) BR mice
Conditions: topical, 30 minutes prior to AA challenge; for Tissue Wt.: 6 mm punch biopsy 1 hour after AA, mean ± standard error; for % Inhibition: biopsy 1 hour after AA
Description: A compound of formula I may be utilized to treat hyperoroliferative skin disease in a mammal. As used herein, "hyperproliferative skin disease" means any condition a symptom of which is accelerated skin cell production, flaking, scales or papular lesions. Representative examples of hyperproliferative skin diseases include osoriasis, eczema, dandruff and the like. […] The Arachidonic Acid Mouse Ear Test is a recognized model for assessing the effectiveness of compounds for the treatment of hyperproliferative skin disease.
Charles River, female, CD, (SD) BR mice, 6 weeks old, are caged 8/group and allowed to acclimate 1-3 weeks prior to use.
Arachidonic acid (AA) is dissolved in reagent grade acetone (2 mg/0.01 ml) and stored at -20° C. for a maximum of 1 week prior to use. Inflammatory reactions are induced by applying 10 μl of AA to both surfaces of one ear (4 mg total).
Test drugs are dissolved in either reagent grade acetone or acueous ethanol (only if insoluble in acetone) at the same doses selected by Opas et al., Fed. Proc. 43, Abstract 2983, P. 1927 (1984) and Young et al., J. Invest. Dermatol. 82, pp. 367-371 (1984). These doses are employed to ensure maximum responses and to overcome any difference in topical absorption which could occur with any drug applied in an aqueous ethanol vehicle. The test drug is applied 30 minutes prior to challenge with AA.
The severity of the skin reaction is measured as a function of increased ear weight. A 6 mm punch biopsy is removed 1 hour after AA challenge and weighed to the nearest 0.1 mg. Mean ± standard error and all possible comparisons are made via Duncan's Multiple Range Statistic.

## O=C1c2cccnc2N(c2ccccc2)C(=O)C12CCCCO2 (centres unmarked) [1-Phenyl-3',4',5',6'-tetrahydro-spiro-[1,8-naphthyridine-3,2'-(2H)pyran]-2,4-dione]
Dose 0.125 mg/ear
  Tissue Wt.: 4.86 ± 0.39 mg
  % Inhibition: 30%
Dose 0.25 mg/ear
  Tissue Wt.: 4.97 ± 0.7 mg
  % Inhibition: 28%
Dose 0.5 mg/ear
  Tissue Wt.: 4.39 ± 0.62 mg
  % Inhibition: 37%
Dose 1.0 mg/ear
  Tissue Wt.: 2.27 ± 0.29 mg
  % Inhibition: 67%

— patent US4775524A, “Method of treating hyperproliferative skin disease with substituted heterospiro pyridine derivatives” (Schering Corporation, priority 1986, dated 1988)
